Laboratory results reported in US12599137B2, “Composition for the drying of Tillandsia sp” (priority 2021, dated 2026).

Test system: Tillandsia sp
Assay: Sampler of 49 cells, each with one specimen of each Tillandsia species, photographic follow-up every 5 days for 30 days
Assay type: in vivo, Tillandsia aeranthos and Tillandsia recurvata
Source text: Next, we proceeded to form a sampler consisting of a base on which a series of wooden slats separated at parallel intervals were placed, to which perpendicular slats were crossed, achieving a plurality of cells for a total of 49 flat cells. One specimen of Tillandsia aeranthos and one of Tillandsia recurvata were placed inside each cell. Each box was designated with a sequential number from No. 1 to No. 49 and a photographic follow-up was taken every 5 days for a total of 30 days.

Row | SMILES | dehydration result of Tillandsia sp, summary in words (conclusions on sampler box tests) | optimum concentration of the active ingredient in water (from Examples 3 to 7, FIG. 1) [g/mL]
1 | Cc1c(C(=O)O)c(O)cc2c1C(=O)c1c(O)c([C@@H]3O[C@H](CO)[C@@H](O)[C@H](O)[C@H]3O)c(O)c(O)c1C2=O [carminic acid] | does not dehydrate | 
2 | O=C([O-])O.[Na+] [sodium bicarbonate] |  | 0.07
